Tests used:
Assay type in all cases: biochemical
[1] = molecular target: T1, CDK1/cyclinB1 (Homo sapiens, UniProt P06493); experiment: Cyclin-dependent kinase activity assay (continuous ATP coupling assay), CDK1/cyclinB1; settings: CDK1/cyclinB1 10 nM, ATP 200 μM, Histone1 copeptide 100 μM, 15 min preincubation, pH 7.5, 1% DMSO
T1 construct: purchased Carna Biosciences 04-102
Method in brief: (§1)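 PK/LDH-coupled continuous assay, ATP at each kinase's Km, Tris pH 7.5 with 1% DMSO final; enzyme preincubated 15 min with compound (10 μM to 0.05 nM, 1:3), NADH fluorescence decrease (ex 340/em 460) gave velocities. IC50 by 4-variable fit; Ki by quadratic/Morrison fit.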

[2] = molecular target: T2, CDK2/cyclinE1 (Homo sapiens, UniProt P24941); experiment: Cyclin-dependent kinase activity assay (continuous ATP coupling assay), CDK2/cyclinE1; settings: CDK2/cyclinE1 5 nM, ATP 300 μM, Rb copeptide 100 μM, 15 min preincubation, pH 7.5, 1% DMSO
T2 construct: purchased Carna Biosciences 04-165
Method in brief: as §1

[3] = molecular target: T3, CDK4/cyclinD3 (Homo sapiens, UniProt P11802); experiment: Cyclin-dependent kinase activity assay (continuous ATP coupling assay), CDK4/cyclinD3; settings: CDK4/cyclinD3 60 nM, ATP 500 μM, Rb copeptide 500 μM, 15 min preincubation, pH 7.5, 1% DMSO
T3 construct: purchased Carna Biosciences 04-105
Method in brief: as §1

[4] = molecular target: T4, CDK6/cyclinD3 (Homo sapiens, UniProt Q00534); experiment: Cyclin-dependent kinase activity assay (continuous ATP coupling assay), CDK6/cyclinD3; settings: CDK6/cyclinD3 25 nM, ATP 500 μM, Rb copeptide 500 μM, 15 min preincubation, pH 7.5, 1% DMSO
T4 construct: purchased Carna Biosciences 04-107
Method in brief: as §1

T1 sequence (P06493 whole entry): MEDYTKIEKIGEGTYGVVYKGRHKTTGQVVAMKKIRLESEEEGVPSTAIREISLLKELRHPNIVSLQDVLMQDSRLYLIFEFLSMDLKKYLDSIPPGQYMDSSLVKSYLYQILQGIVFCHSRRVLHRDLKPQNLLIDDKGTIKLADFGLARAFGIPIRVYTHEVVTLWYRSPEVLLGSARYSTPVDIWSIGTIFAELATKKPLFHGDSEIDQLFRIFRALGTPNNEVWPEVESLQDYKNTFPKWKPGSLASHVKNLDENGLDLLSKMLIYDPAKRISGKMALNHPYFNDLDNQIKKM
T1 sequence (P14635 whole entry partner): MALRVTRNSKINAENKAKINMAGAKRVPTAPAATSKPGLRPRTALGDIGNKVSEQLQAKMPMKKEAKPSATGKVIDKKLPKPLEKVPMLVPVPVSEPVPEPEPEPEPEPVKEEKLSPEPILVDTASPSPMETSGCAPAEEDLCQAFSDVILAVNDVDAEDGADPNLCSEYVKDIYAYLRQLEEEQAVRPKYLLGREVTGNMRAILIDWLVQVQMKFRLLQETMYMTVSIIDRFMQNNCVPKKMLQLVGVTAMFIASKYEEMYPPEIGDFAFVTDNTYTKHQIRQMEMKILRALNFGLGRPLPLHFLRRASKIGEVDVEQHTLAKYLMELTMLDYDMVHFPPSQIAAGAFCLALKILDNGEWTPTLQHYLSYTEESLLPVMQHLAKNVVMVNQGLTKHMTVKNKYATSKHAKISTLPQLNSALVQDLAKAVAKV
T3 sequence (P11802 whole entry): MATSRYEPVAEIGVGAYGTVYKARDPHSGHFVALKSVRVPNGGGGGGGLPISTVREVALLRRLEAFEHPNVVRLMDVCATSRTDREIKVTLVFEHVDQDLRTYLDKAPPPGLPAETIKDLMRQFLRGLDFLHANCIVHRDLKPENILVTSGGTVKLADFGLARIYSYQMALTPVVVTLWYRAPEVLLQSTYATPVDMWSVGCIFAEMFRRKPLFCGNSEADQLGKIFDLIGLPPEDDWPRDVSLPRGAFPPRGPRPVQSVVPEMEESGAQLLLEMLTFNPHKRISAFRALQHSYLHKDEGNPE
T3 sequence (P30281 whole entry partner): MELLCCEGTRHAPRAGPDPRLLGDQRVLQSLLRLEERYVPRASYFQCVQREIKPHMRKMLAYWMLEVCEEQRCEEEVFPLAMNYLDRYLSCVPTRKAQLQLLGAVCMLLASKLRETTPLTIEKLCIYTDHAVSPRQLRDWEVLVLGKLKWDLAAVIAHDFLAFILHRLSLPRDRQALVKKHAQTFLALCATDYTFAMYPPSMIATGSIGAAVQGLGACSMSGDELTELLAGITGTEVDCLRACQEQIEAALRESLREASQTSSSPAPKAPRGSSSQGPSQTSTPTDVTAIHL
T4 sequence (Q00534 whole entry): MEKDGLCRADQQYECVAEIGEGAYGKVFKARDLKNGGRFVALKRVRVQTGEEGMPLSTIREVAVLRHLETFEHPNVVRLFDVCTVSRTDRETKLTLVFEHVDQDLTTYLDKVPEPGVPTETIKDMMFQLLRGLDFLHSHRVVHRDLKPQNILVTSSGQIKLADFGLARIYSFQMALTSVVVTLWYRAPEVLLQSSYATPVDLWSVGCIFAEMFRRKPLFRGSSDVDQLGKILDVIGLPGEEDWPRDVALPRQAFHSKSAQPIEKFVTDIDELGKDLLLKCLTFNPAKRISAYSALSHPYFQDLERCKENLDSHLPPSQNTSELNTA
T4 sequence (P30281 whole entry partner): as the sequence (P30281 whole entry partner) above

Compound	IC50 [1]	IC50 [2]	IC50 [3]	IC50 [4]
CNS(=O)(=O)c1ccc(Nc2ncc(C(F)(F)F)c(-n3cc(C4CCC4)cn3)n2)cc1 [Example 101]	≥ 100 nM	10 to 100 nM	≥ 100 nM	≥ 100 nM
CNS(=O)(=O)c1ccc(Nc2ncc(C(F)(F)F)c(-n3cc(C4COC4)cn3)n2)cc1 [Example 102]	≥ 100 nM	≤ 10 nM	10 to 100 nM	10 to 100 nM
CNS(=O)(=O)c1ccc(Nc2ncc(C(F)(F)F)c(-n3cc([C@H]4C[C@@H](O)C4)cn3)n2)cc1 [Example 103, 4-[[4-[4-(3-hydroxycyclobutyl)pyrazol-1-yl]-5-(trifluoromethyl)pyrimidin-2-yl]amino]-N-methyl-benzene sulfonamide]	10 to 100 nM	≤ 10 nM	10 to 100 nM	10 to 100 nM
CNS(=O)(=O)c1ccc(Nc2ncc(C(F)(F)F)c(-n3cc([C@H]4C[C@H](O)C4)cn3)n2)cc1 [Example 106, 4-((4-(4-((1r,3r)-3-hydroxycyclobutyl)-1H-pyrazol-1-yl)-5-(trifluoromethyl)pyrimidin-2-yl)amino)-N-methylbenzenesulfonamide]	≥ 100 nM	10 to 100 nM	≥ 100 nM	≥ 100 nM
CC(C)(O)CCc1cnn(-c2nc(NC3CCN(S(C)(=O)=O)CC3)ncc2C(F)(F)F)c1 [Example 109]	≥ 100 nM	10 to 100 nM	10 to 100 nM	10 to 100 nM
CC(O)CNS(=O)(=O)c1ccc(Nc2ncc(C(F)(F)F)c(-n3cccn3)n2)cc1 (stereo not shown) [Example 110]	≥ 100 nM	≤ 10 nM	≥ 100 nM	≥ 100 nM
CC(C)(O)CNS(=O)(=O)c1ccc(Nc2ncc(C(F)(F)F)c(-n3cccn3)n2)cc1 [Example 111]	≥ 100 nM	≤ 10 nM	≥ 100 nM	≥ 100 nM
O=S(=O)(NCCCO)c1ccc(Nc2ncc(C(F)(F)F)c(-n3cccn3)n2)cc1 [Example 112]	≥ 100 nM	≤ 10 nM	≥ 100 nM	≥ 100 nM
O=S(=O)(NCCCCO)c1ccc(Nc2ncc(C(F)(F)F)c(-n3cccn3)n2)cc1 [Example 113]	≥ 100 nM	≤ 10 nM	≥ 100 nM	≥ 100 nM
Cc1cnc(Nc2ccc(S(=O)(=O)NCCO)cc2)nc1-n1cccn1 [Example 114]	≥ 100 nM	10 to 100 nM	≥ 100 nM	≥ 100 nM
O=S(=O)(NCCO)c1ccc(Nc2ncc(F)c(-n3cccn3)n2)cc1 [Example 115]	≥ 100 nM	10 to 100 nM	≥ 100 nM	≥ 100 nM
O=S(=O)(NCCO)c1ccc(Nc2ncc(C(F)F)c(-n3cccn3)n2)cc1 [Example 116, 4-((5-(difluoromethyl)-4-(1H-pyrazol-1-yl)pyrimidin-2-yl)amino)-N-(2-hydroxyethyl)benzenesulfonamide]	≥ 100 nM	10 to 100 nM	≥ 100 nM	≥ 100 nM
O=S(=O)(NCCO)c1ccc(Nc2ncc(Cl)c(-n3cccn3)n2)cc1 [Example 117]	10 to 100 nM	≤ 10 nM	≥ 100 nM	≥ 100 nM
O=S(=O)(NCCO)c1ccc(Nc2nccc(-n3cccn3)n2)cc1 [Example 118]	≥ 100 nM	≥ 100 nM	≥ 100 nM	≥ 100 nM
N#Cc1cnc(Nc2ccc(S(=O)(=O)NCCO)cc2)nc1-n1cccn1 [Example 119]	≥ 100 nM	10 to 100 nM	≥ 100 nM	10 to 100 nM
CS(=O)(=O)Nc1ccc(Nc2ncc(C(F)(F)F)c(-n3cccn3)n2)cc1 [Example 120]	≥ 100 nM	10 to 100 nM	≥ 100 nM	≥ 100 nM

The next lines start with the values.

IC50 [1]	IC50 [2]	IC50 [3]	IC50 [4]	Compound
≥ 100 nM	10 to 100 nM	≥ 100 nM	≥ 100 nM	CS(=O)(=O)Nc1cccc(Nc2ncc(C(F)(F)F)c(-n3cccn3)n2)c1 [Example 121]
≥ 100 nM	≥ 100 nM	≥ 100 nM	≥ 100 nM	CNS(=O)(=O)c1cccc(Nc2ncc(C(F)(F)F)c(-n3cccn3)n2)c1 [Example 122]
≥ 100 nM	10 to 100 nM	≥ 100 nM	≥ 100 nM	O=S(=O)(NCCO)c1ccc(Nc2ncc(C(F)(F)F)c(-n3cccn3)n2)cc1F [Example 123]
≥ 100 nM	≤ 10 nM	≥ 100 nM	≥ 100 nM	O=S(=O)(NCCO)c1ccc(Nc2ncc(C(F)(F)F)c(-n3cccn3)n2)c(F)c1 [Example 124]
≥ 100 nM	10 to 100 nM	≥ 100 nM	≥ 100 nM	Cc1cc(Nc2ncc(C(F)(F)F)c(-n3cccn3)n2)ccc1S(=O)(=O)NCCO [Example 125]
≥ 100 nM	≤ 10 nM	≥ 100 nM	≥ 100 nM	Cc1cc(S(=O)(=O)NCCO)ccc1Nc1ncc(C(F)(F)F)c(-n2cccn2)n1 [Example 126]
≥ 100 nM	10 to 100 nM	≥ 100 nM	≥ 100 nM	COCCNS(=O)(=O)c1ccc(Nc2ncc(C(F)(F)F)c(-n3cccn3)n2)cc1 [Example 127]
≥ 100 nM	≥ 100 nM	≥ 100 nM	≥ 100 nM	O=S(=O)(NCCOC(F)(F)F)c1ccc(Nc2ncc(C(F)(F)F)c(-n3cccn3)n2)cc1 [Example 128]
≥ 100 nM	≥ 100 nM	≥ 100 nM	≥ 100 nM	O=S(=O)(NCCOC1CC1)c1ccc(Nc2ncc(C(F)(F)F)c(-n3cccn3)n2)cc1 [Example 129]
≥ 100 nM	10 to 100 nM	≥ 100 nM	≥ 100 nM	O=S(=O)(CCCO)c1ccc(Nc2ncc(C(F)(F)F)c(-n3cccn3)n2)cc1 [Example 130, 3-[4-[[4-pyrazol-1-yl-5-(trifluoromethyl)pyrimidin-2-yl]amino]phenyl]sulfonylpropan-1-ol]
≥ 100 nM	≤ 10 nM	≥ 100 nM	≥ 100 nM	O=S(=O)(NCC1(O)CC1)c1ccc(Nc2ncc(C(F)(F)F)c(-n3cccn3)n2)cc1 [Example 131]
≥ 100 nM	10 to 100 nM	≥ 100 nM	≥ 100 nM	O=S(=O)(NCC1(CO)CC1)c1ccc(Nc2ncc(C(F)(F)F)c(-n3cccn3)n2)cc1 [Example 132]
10 to 100 nM	≤ 10 nM	≥ 100 nM	≥ 100 nM	CC(CO)NS(=O)(=O)c1ccc(Nc2ncc(C(F)(F)F)c(-n3cccn3)n2)cc1 (stereo not shown) [Example 133]
≥ 100 nM	≤ 10 nM	≥ 100 nM	≥ 100 nM	CC(C)(CO)NS(=O)(=O)c1ccc(Nc2ncc(C(F)(F)F)c(-n3cccn3)n2)cc1 [Example 134]
≥ 100 nM	≤ 10 nM	≥ 100 nM	≥ 100 nM	O=S(=O)(NC1(CO)CC1)c1ccc(Nc2ncc(C(F)(F)F)c(-n3cccn3)n2)cc1 [Example 135]
≥ 100 nM	≤ 10 nM	≥ 100 nM	≥ 100 nM	O=S(=O)(NCCO)c1ccc(Nc2ncc(C(F)(F)F)c(-n3cccn3)n2)cn1 [Example 136, N-(2-hydroxyethyl)-5-[[4-pyrazol-1-yl-5-(trifluoromethyl)pyrimidin-2-yl]amino]pyridine-2-sulfonamide]
≥ 100 nM	≥ 100 nM	≥ 100 nM	≥ 100 nM	O=S(=O)(NCCO)c1ccc(Nc2ncc(C(F)(F)F)c(-n3cccn3)n2)nc1 [Example 137]
≥ 100 nM	≤ 10 nM	≥ 100 nM	≥ 100 nM	O=C(O)CNS(=O)(=O)c1ccc(Nc2ncc(C(F)(F)F)c(-n3cccn3)n2)cc1 [Example 138, ((4-((4-(1H-pyrazol-1-yl)-5-(trifluoromethyl)pyrimidin-2-yl)amino)phenyl)sulfonyl)glycine]

— US20260308145A1, “CDK2 INHIBITORS AND METHODS OF USING SAME” (Shenzhen lonova Life Science Co., Ltd., priority 2023, published 2026)
